Converted amounts (≈) assume the structure as drawn.
Experiments:
Oncorhynchus mykiss = details: for LC50: acute, duration: 96 hours, mortality
Rattus norvegicus = details: acute; oral; mortality
Pleurozium sp. = details: acute; duration: 72 hours; growth
Anas platyrhynchos = details: reproductive
Apis mellifera = details: acute, duration: 48 hours, mortality
Colinus virginianus = details: acute; oral; mortality
Daphnia magna = details: chronic/long-term; duration: 28 days; reproduction
Folsomia candida = details: chronic/long-term; reproduction
Mus musculus = details: acute; oral; mortality
Oryctolagus sp. = details: developmental; development
Salmo salar = details: acute; duration: 96 hours; mortality
Tagia sp. = details: chronic/long-term; reproduction
Aphidius rhopalosiphi = experiment: LR50; higher = less toxic; details: not reported; mortality

SMILES	LC50 (Oncorhynchus mykiss) [µg/mL]	LD50 (Rattus norvegicus) [mg/kg-day]	NOEC (Pleurozium sp.) [mg/L]	NOEL (Anas platyrhynchos) [mg/kg-day]	LD50 (Apis mellifera; dermal) [µg/piece]	LD50 (Apis mellifera; oral, unspecified) [µg/piece]	LD50 (Colinus virginianus) [mg/kg-day]	NOEC (Daphnia magna) [mg/L]	NOEC (Folsomia candida) [mg/kg]	LD50 (Mus musculus) [mg/kg-day]	NOEC (Oncorhynchus mykiss; chronic/long-term, duration: 95 days, growth) [mg/L]	NOAEL (Oryctolagus sp.) [mg/kg-day]	LC50 (Salmo salar) [µg/mL]	NOEC (Tagia sp.) [mg/kg]	LR50 (Aphidius rhopalosiphi) [g/ha]
O=C1NC(=O)C2CC=CCC12 (configuration not stated) [1,2,3,6-Tetrahydrophthalimide]	> 120	≥ 1470	–	–	–	–	–	–	–	–	–	–	–	–	–
NC(=O)C1CC=CCC1C(=O)O (configuration not stated) [6-[Hydroxy(imino)methyl]cyclohex-3-ene-1-carboxylic acid]	> 120	–	32	–	–	–	–	–	–	–	–	–	–	–	–
O=C1C2CC=CCC2C(=O)N1SC(Cl)(Cl)Cl (configuration not stated) [Captan]	0.0147 (≈ 0.0489 µM)	–	–	74.4	> 200	> 100	> 2000	0.4	100	3720	0.2	20	0.0913 (≈ 0.304 µM)	7.3	> 3200

Reference: EPA's ToxValDB 9.5 (doi:10.2903/j.efsa.2020.6230)
